From article PMC11288129, “Diversely evolved xibalbin variants from remipede venom inhibit potassium channels and activate PKA-II and Erk1/2 signaling” (BMC Biology, 2024)
“Also recorded” adds a separate entry of the source. Marks after values point to notes of the source that are not given here. Positions of bridges follow the written chain, without caps; N, C: chain ends. No end group written: not given here.

What was measured:
rKv1.4 = experiment: TEVC inhibition, Kv1.4; format: cell-based, rat; set-up: unit not given here; conditions: 1 µM
Source text: (§1) For the expression of Kv channels rat Kv1.1 (GenBank accession number: NM_173095 [88, 89]), rKv1.2 (NM_012970 [90, 91]), human Kv1.3 (NM_002232 [92, 93]), rKv1.4 (NM_012971 [94, 95]), rKv1.6 (NM_023954 [96, 97]), hKv2.1 (NM_004975 [98, 99]), hKv3.1 (NM_004976 [100, 101]), rKv4.2 (NM_031739 [102, 103]), hKv10.1 (NM_172362 [104, 105]), hERG1 [Kv11.1, (NM_000238 [106, 107])], and Shaker IR [from Drosophila melanogaster, (NM_167595 [108, 109])], Nav channels [rNav1.2 (NM_012647 [42, 110]), rNav1.4 (NM_013178 [111, 112]), hNav1.5 (NM_198056 [113, 114]), mNav1.6 (NM_001077499 [115, 116]), BgNav [from Blattella germanica, (DQ466887 [117, 118])] and the auxiliary subunits rβ1 (NM_001271045 [119, 120]), hβ1 (NM_001037 [121, 122]), and TipE [from D. melanogaster, (NM_079196 [109, 123])], and Cav channels hCav3.1 [124, 125], hCav3.2 [126, 127], and hCav3.3 [128, 129] in Xenopus oocytes, the linearized plasmids were transcribed using the T7 or SP6 mMESSAGEmMACHINE transcription kit (Ambion, Austin, TX, USA). Mature female animals were purchased from Nasco (Fort Atkinson, USA) and were housed in the Aquatic Facility (KU Leuven) in compliance with the regulations of the European Union (EU) concerning the welfare of laboratory animals as declared in Directive 2010/63/EU. The use of X. laevis oocytes was approved by the Animal Ethics Committee of the KU Leuven with the license number P186/2019. Stage V–VI oocytes were collected from anesthetized female X. laevis frog as previously described, with the frogs anesthetized by placement in 0.1% tricaine solution (amino benzoic acid ethyl ester; Merck, USA). Oocyte microinjection was performed using a microinjector (Drummond Scientifc®, USA), with a programmed cRNA injection volume of 4—50 nL, depending on the channel subtype. The oocytes were incubated in ND96 solution (96 mM NaCl, 2 mM KCl, 1.8 mM CaCl2, 2 mM MgCl2, and 5 mM HEPES, pH 7.4), supplemented with 50 mg/l gentamicin sulfate.
(§2) Electrophysiological measurements were performed at room temperature (18–22 °C) using the two-electrode voltage clamp (TEVC) technique. Data were obtained using a GeneClamp 500 amplifier (Axon Instruments, USA), and Clampex9 software (Axon Instruments), responsible for data acquisition and storage. Glass micropipettes were produced using glass capillaries (borosilicate WPI 1B120-6) and drawn in a WPI (World Precision Instruments, USA) manual stretcher. The bath and perfusion solutions were either the previously described ND96 (Nav and Kv channels) or calcium-free ND96 supplemented with 10 mM BaCl2 (Cav channels).
(§3) Whole-cell currents of oocytes were recorded 1 to 3 days after injection. Current and voltage electrodes were filled with 3 M KCl and their resistance was adjusted from 0.7 to 2.0 MΩ. Currents were sampled at 20 kHz (Nav channels) and 10 kHz (Kv and Cav channels) and filtered using a four-pole Bessel low-pass Bessel filter, at 1 kHz for sodium, and […] for potassium and calcium, except for the hERG ion channel, in which the currents were filtered at 1 kHz. Leak subtraction was performed using a -P/4 protocol. Kv1.x currents were evoked by 500 ms depolarizations to 0 mV followed by a 500-ms pulse to − 50 mV, from a holding potential of − 90 mV. Kv2.1, Kv3.1, and Kv4.2 currents were elicited by 500 ms pulses to + 20 mV from a holding potential of − 90 mV. Current traces of Kv10.1 were elicited by 2 s depolarization to 0 mV, from a holding potential of − 90 mV. Current traces of hERG1 channel were elicited by applying a + 40 mV prepulse for 2 s followed by a step of − 120 mV for 2 s. Sodium current traces were evoked by a 100 ms depolarization to 0 mV, from a holding potential of − 90 mV. The current–voltage (IV) relationships were determined by 100-ms step depolarizations between − 90 and + 40 mV, using 5 mV increments. […]

rKv4.2 = experiment: TEVC inhibition, Kv4.2; format: cell-based, rat; set-up: unit not given here; conditions: 1 µM
Source text: as §1, §2, §3

mNav1.6 = experiment: TEVC inhibition, Nav1.6; format: cell-based, mouse; conditions: 1 µM, Xenopus oocytes, ND96, 18–22 °C, mean ± SEM, n ≥ 3
Source text: (§4) For the expression of Kv channels rat Kv1.1 (GenBank accession number: NM_173095 [88, 89]), rKv1.2 (NM_012970 [90, 91]), human Kv1.3 (NM_002232 [92, 93]), rKv1.4 (NM_012971 [94, 95]), rKv1.6 (NM_023954 [96, 97]), hKv2.1 (NM_004975 [98, 99]), hKv3.1 (NM_004976 [100, 101]), rKv4.2 (NM_031739 [102, 103]), hKv10.1 (NM_172362 [104, 105]), hERG1 [Kv11.1, (NM_000238 [106, 107])], and Shaker IR [from Drosophila melanogaster, (NM_167595 [108, 109])], Nav channels [rNav1.2 (NM_012647 [42, 110]), rNav1.4 (NM_013178 [111, 112]), hNav1.5 (NM_198056 [113, 114]), mNav1.6 (NM_001077499 [115, 116]), BgNav [from Blattella germanica, (DQ466887 [117, 118])] and the auxiliary subunits rβ1 (NM_001271045 [119, 120]), hβ1 (NM_001037 [121, 122]), and TipE [from D. melanogaster, (NM_079196 [109, 123])], and Cav channels hCav3.1 [124, 125], hCav3.2 [126, 127], and hCav3.3 [128, 129] in Xenopus oocytes, the linearized plasmids were transcribed using the T7 or SP6 mMESSAGEmMACHINE transcription kit (Ambion, Austin, TX, USA). […]
(§5) Whole-cell currents of oocytes were recorded 1 to 3 days after injection. […] The current–voltage (IV) relationships were determined by 100-ms step depolarizations between − 90 and + 40 mV, using 5 mV increments. […]

Kv1.3 = experiment: TEVC inhibition, Kv1.3; format: cell-based, human; set-up: unit not given here; conditions: 1 µM
Source text: as §1, §2, §3

BgNav = experiment: TEVC current-voltage relationship (Vhalf), BgNav; format: cell-based, Blattella germanica; set-up: Vhalf, toxin inactivation, BgNav / Vhalf, toxin activation, BgNav: unit not given here; conditions: for Vhalf, toxin activation, BgNav / Vhalf, toxin inactivation, BgNav: 1 µM
Source text: as §1, §2, §3

[1] = system: voltage-gated potassium channels (Kvs); experiment: TEVC on panel of voltage-gated potassium channels; format: cell-based; conditions: 1 µM
Source text: as §4, §5

Kv1.1 = experiment: TEVC inhibition, Kv1.1; format: cell-based, rat; set-up: Inhibition data, Kv1.1: unit not given here; conditions: 1 µM
Source text: as §1, §2, §3

rNav1.4 = experiment: TEVC inhibition, Nav1.4; format: cell-based, rat; conditions: 1 µM, Xenopus oocytes, ND96, 18–22 °C, mean ± SEM, n ≥ 3
Source text: as §4, §5

hNav1.5 = experiment: TEVC inhibition, Nav1.5; format: cell-based, human; conditions: 1 µM, Xenopus oocytes, ND96, 18–22 °C, mean ± SEM, n ≥ 3
Source text: as §4, §5

Question: Which results are given for “KRSCIRRFGRCDHRPNDCCYNSSCRCNLWGSNCRCQRMGLFQKWGK (disulfide 4-19, 11-24, 18-35, 26-33) [xib13]”?
Answer: Inhibition data, Kv1.4 (rKv1.4; replicate 1): 0.0; Inhibition data, Kv1.4 (rKv1.4; replicate 2): 0.0; Inhibition data, Kv1.4 (rKv1.4; replicate 3): 0.0; Inhibition data, Kv1.4 (rKv1.4; replicate 4): 0.0; Inhibition data, Kv4.2 (rKv4.2; replicate 1): 0.0; Inhibition data, Kv4.2 (rKv4.2; replicate 2): 0.0; Inhibition data, Kv4.2 (rKv4.2; replicate 3): 0.0; Inhibition data, Kv4.2 (rKv4.2; replicate 4): 0.0; inhibition of Nav1.6 (mNav1.6): 10.7 ± 0.9%; Inhibition data, Kv1.3 (Kv1.3; replicate 1): 61.2; Inhibition data, Kv1.3 (Kv1.3; replicate 2): 57.8; Inhibition data, Kv1.3 (Kv1.3; replicate 3): 41.4; Inhibition data, Kv1.3 (Kv1.3; replicate 4): 53.4; Vhalf activation shift, BgNav (BgNav; 1 µM versus control (ND96)): 7.7*** mV; Vhalf inactivation shift, BgNav (BgNav; 1 µM versus control (ND96)): 0.2 mV; Vhalf, toxin activation, BgNav (BgNav; replicate 1): -17.0858; Vhalf, toxin inactivation, BgNav (BgNav; replicate 1): -50.0173; Vhalf, toxin activation, BgNav (BgNav; replicate 2): -22.9798; Vhalf, toxin inactivation, BgNav (BgNav; replicate 2): -54.2542; Vhalf, toxin activation, BgNav (BgNav; replicate 3): -20.8319; Vhalf, toxin inactivation, BgNav (BgNav; replicate 3): -48.9373; Vhalf, toxin activation, BgNav (BgNav; replicate 4): -18.4734; Vhalf, toxin inactivation, BgNav (BgNav; replicate 4): -48.3513; inhibition of voltage-gated potassium channels [1]: potent inhibition; also recorded: most significant inhibition rates; inhibition of Kv1.1 (Kv1.1): inhibit especially Kv1.1 channels; Inhibition data, Kv1.1 (Kv1.1; replicate 1): 83.4; Inhibition data, Kv1.1 (Kv1.1; replicate 2): 86.7; Inhibition data, Kv1.1 (Kv1.1; replicate 3): 85.0; Inhibition data, Kv1.1 (Kv1.1; replicate 4): 83.1; inhibition of Nav1.4 (rNav1.4): 33.0 ± 2.4%; inhibition of Nav1.5 (hNav1.5): 28.2 ± 3.4%

Question: Which results are given for “RLFCIRHHKYCGHRPKRCCSGLFCRCNTFGTNCRCQSKGALGKLI (disulfide 4-19, 11-24, 18-35, 26-33) [xib1]”?
Answer: Inhibition data, Kv1.4 (rKv1.4; replicate 1): 0.0; Inhibition data, Kv1.4 (rKv1.4; replicate 2): 0.0; Inhibition data, Kv1.4 (rKv1.4; replicate 3): 0.0; Inhibition data, Kv1.4 (rKv1.4; replicate 4): 0.0; Inhibition data, Kv4.2 (rKv4.2; replicate 1): 0.0; Inhibition data, Kv4.2 (rKv4.2; replicate 2): 0.0; Inhibition data, Kv4.2 (rKv4.2; replicate 3): 0.0; Inhibition data, Kv4.2 (rKv4.2; replicate 4): 0.0; inhibition of Nav1.6 (mNav1.6): 5.7 ± 1.2%; Inhibition data, Kv1.3 (Kv1.3; replicate 1): 59.5; Inhibition data, Kv1.3 (Kv1.3; replicate 2): 65.4; Inhibition data, Kv1.3 (Kv1.3; replicate 3): 60.6; Inhibition data, Kv1.3 (Kv1.3; replicate 4): 62.3; Vhalf activation shift, BgNav (BgNav; 1 µM versus control (ND96)): 2.1 mV; Vhalf, toxin activation, BgNav (BgNav; replicate 1): -20.8516; Vhalf, toxin inactivation, BgNav (BgNav; replicate 1): -45.0763; Vhalf, toxin activation, BgNav (BgNav; replicate 2): -24.1418; Vhalf, toxin inactivation, BgNav (BgNav; replicate 2): -46.3574; Vhalf, toxin activation, BgNav (BgNav; replicate 3): -27.3818; Vhalf, toxin inactivation, BgNav (BgNav; replicate 3): -51.0148; Vhalf, toxin activation, BgNav (BgNav; replicate 4): -26.78; inhibition of voltage-gated potassium channels [1]: potent inhibition; inhibition of Kv1.1 (Kv1.1): inhibit especially Kv1.1 channels; Inhibition data, Kv1.1 (Kv1.1; replicate 1): 76.3; Inhibition data, Kv1.1 (Kv1.1; replicate 2): 66.2; Inhibition data, Kv1.1 (Kv1.1; replicate 3): 76.2; Inhibition data, Kv1.1 (Kv1.1; replicate 4): 75.3; inhibition of Nav1.4 (rNav1.4): 21.8 ± 3.3%; inhibition of Nav1.5 (hNav1.5): 26.1 ± 1.8%
